Experimental data reported in patent US20260297060A1, “COMPOUNDS FOR THE DEGRADATION OF MUTANT BRAF” (C4 THERAPEUTICS, INC., priority 2023, published 2026).
Read-outs that look alike come from different tables or passages of the source.

Molecular target: T1, BRAF V600E (Homo sapiens, UniProt P15056+Q96SW2, V600E)
T1 construct: knock-in of the HiBiT tag to the endogenous BRAF V600E locus; host or cells: A375.10 (A375 clonal line, CRISPR HiBiT knock-in at the endogenous BRAF V600E locus)
Experiment: BRAF V600E HiBiT Degradation Assay
Assay type: cell-based
How it was run: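 Endogenous HiBiT knock-in on BRAF V600E in A375 cells (clone A375.10); 11-point half-log series, top 10 μM, 2, 6 or 24 h at 37° C. Lytic HiBiT luminescence, background-subtracted, normalized to DMSO; 4-parameter fit gives DC50, Emax (residual protein) and IP (inflection point).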

[1] = A375.10 cells, BRAF V600E, 2 hours, inflection point, read-out: HiBiT-Degradation A375.10 BRAF 2 hours IP
[2] = A375.10 cells, BRAF V600E, 2 hours, read-out: HiBiT-Degradation A375.10 BRAF 2 hours DC50
[3] = A375.10 cells, BRAF V600E, 2 hours, residual protein remaining, read-out: HiBiT-Degradation A375.10 BRAF 2 hours Emax
[4] = A375.10 cells, BRAF V600E, 6 hours, inflection point, read-out: HiBiT-Degradation A375.10 BRAF 6 hours IP
[5] = A375.10 cells, BRAF V600E, 6 hours, read-out: HiBiT-Degradation A375.10 BRAF 6 hours DC50
[6] = A375.10 cells, BRAF V600E, 6 hours, residual protein remaining, read-out: HiBiT-Degradation A375.10 BRAF 6 hours Emax
[7] = A375.10 cells, HiBiT, BRAF V600E, 24 hours, read-out: HiBiT-Degradation A375.10 BRAF 24 hours DC50
[8] = A375.10 cells, HiBiT, BRAF V600E, 24 hours, read-out: HiBiT-Degradation A375.10 BRAF 24 hours Emax
[9] = A375.10 cells, HiBiT, BRAF V600E, 24 hours, read-out: HiBiT-Degradation A375.10 BRAF 24 hours IP
[10] = read-out: HiBiT-Degradation A375.10 BRAF 2 hours Emax, A375.10 cells, BRAF V600E, 2 hours, residual protein remaining
[11] = read-out: HiBiT-Degradation A375.10 BRAF 2 hours DC50, A375.10 cells, BRAF V600E, 2 hours
[12] = read-out: HiBiT-Degradation A375.10 BRAF 2 hours IP, A375.10 cells, BRAF V600E, 2 hours, inflection point
[13] = read-out: HiBiT-Degradation A375.10 BRAF 6 hours DC50, A375.10 cells, BRAF V600E, 6 hours
[14] = read-out: HiBiT-Degradation A375.10 BRAF 6 hours IP, A375.10 cells, BRAF V600E, 6 hours, inflection point
[15] = read-out: HiBiT-Degradation A375.10 BRAF 24 hours DC50, A375.10 cells, HiBiT, BRAF V600E, 24 hours
[16] = read-out: HiBiT-Degradation A375.10 BRAF 24 hours IP, A375.10 cells, HiBiT, BRAF V600E, 24 hours

T1 sequence (P15056 whole entry V600E): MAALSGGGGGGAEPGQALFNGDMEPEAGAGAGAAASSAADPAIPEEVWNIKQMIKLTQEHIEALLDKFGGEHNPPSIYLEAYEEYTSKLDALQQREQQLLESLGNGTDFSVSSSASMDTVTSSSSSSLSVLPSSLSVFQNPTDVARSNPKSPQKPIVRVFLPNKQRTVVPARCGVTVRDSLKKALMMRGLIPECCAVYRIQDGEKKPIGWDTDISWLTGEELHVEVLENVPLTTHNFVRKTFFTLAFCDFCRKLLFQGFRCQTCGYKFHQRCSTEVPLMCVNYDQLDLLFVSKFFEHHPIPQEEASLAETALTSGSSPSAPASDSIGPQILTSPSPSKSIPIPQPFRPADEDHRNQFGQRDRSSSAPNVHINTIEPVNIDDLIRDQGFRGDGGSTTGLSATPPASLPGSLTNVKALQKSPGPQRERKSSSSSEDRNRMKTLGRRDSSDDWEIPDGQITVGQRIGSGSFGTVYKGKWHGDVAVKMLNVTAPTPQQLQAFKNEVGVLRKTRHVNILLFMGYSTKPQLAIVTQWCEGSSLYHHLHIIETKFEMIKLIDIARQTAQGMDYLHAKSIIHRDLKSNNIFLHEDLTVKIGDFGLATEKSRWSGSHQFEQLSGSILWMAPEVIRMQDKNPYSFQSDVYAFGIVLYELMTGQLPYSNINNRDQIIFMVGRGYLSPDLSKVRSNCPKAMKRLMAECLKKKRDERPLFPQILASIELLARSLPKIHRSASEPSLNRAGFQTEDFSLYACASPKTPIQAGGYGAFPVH
T1 sequence (Q96SW2 whole entry): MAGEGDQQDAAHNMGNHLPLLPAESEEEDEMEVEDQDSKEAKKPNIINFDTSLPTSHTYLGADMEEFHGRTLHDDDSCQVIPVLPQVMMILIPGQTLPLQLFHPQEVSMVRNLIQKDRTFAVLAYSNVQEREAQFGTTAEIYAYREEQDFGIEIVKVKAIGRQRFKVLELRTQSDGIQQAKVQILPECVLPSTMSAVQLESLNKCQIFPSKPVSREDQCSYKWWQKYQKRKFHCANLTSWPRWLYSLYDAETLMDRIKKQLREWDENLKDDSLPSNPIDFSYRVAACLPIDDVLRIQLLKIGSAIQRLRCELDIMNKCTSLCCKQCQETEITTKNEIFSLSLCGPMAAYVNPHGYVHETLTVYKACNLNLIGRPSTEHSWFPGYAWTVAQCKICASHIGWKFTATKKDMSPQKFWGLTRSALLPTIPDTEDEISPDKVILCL
T1 sequence (Q16531 whole entry partner): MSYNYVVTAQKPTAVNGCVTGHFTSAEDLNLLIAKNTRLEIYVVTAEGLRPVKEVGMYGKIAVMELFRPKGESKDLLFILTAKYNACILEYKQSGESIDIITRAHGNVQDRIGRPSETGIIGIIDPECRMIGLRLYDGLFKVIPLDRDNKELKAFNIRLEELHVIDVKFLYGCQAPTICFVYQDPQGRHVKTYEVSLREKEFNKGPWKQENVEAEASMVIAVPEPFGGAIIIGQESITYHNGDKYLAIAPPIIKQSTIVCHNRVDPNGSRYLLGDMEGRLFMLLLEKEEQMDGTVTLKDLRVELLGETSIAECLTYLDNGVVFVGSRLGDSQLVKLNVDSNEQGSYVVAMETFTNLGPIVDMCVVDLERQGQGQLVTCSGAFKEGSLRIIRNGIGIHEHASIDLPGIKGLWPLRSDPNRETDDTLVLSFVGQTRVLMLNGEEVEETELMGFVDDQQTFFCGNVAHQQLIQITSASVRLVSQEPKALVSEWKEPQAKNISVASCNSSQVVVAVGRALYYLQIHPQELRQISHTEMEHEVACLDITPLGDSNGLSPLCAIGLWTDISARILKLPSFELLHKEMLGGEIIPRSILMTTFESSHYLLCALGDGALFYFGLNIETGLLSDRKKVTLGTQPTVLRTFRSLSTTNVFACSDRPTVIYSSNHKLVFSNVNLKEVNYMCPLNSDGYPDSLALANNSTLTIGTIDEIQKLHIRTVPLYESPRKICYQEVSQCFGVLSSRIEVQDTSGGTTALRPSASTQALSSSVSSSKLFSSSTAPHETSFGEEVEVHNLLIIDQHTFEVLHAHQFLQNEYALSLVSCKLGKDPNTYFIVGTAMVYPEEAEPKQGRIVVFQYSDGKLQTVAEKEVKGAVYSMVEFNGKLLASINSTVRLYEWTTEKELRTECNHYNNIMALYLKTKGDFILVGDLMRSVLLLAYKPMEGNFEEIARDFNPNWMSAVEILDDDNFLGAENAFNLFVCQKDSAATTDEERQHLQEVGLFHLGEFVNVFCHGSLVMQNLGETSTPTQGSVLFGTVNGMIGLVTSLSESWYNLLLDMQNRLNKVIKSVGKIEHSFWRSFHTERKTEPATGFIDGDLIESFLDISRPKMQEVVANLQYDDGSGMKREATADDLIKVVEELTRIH

DC50 [1]	DC50 [2]	Emax [3]	DC50 [4]	DC50 [5]	Emax [6]	DC50 [7]	Emax [8]	DC50 [9]	Emax [10]	DC50 [11]	DC50 [12]	DC50 [13]	DC50 [14]	DC50 [15]	DC50 [16]	Compound
< 1000 nM	< 1000 nM	< 50%	< 1000 nM	< 1000 nM	< 50%	< 1000 nM	< 50%	< 1000 nM								CCN(C)S(=O)(=O)Nc1ccc(F)c(Oc2ccc3ncn([C@H]4COC5(CCC(N6CC7(CN(c8cc9c(cc8F)c(N8CCC(=O)NC8=O)nn9C)C7)C6)CC5)C4)c(=O)c3c2)c1C#N (stereo partly drawn) [Compound 27, 6-[2-cyano-3-[[ethyl(methyl)sulfamoyl]amino]-6-fluoro-phenoxy]-3-[(3R)-8-[6-[3-(2,4-dioxohexahydropyrimidin-1-yl)-5-fluoro-1-methyl-indazol-6-yl]-2,6-diazaspiro[3.3]heptan-2-yl]-1-oxaspiro[4.5]decan-3-yl]-4-oxo-quinazoline]
< 1000 nM	< 1000 nM		< 1000 nM	< 1000 nM	< 50%	< 1000 nM	< 50%	< 1000 nM	< 50%							CCN(C)S(=O)(=O)Nc1ccc(F)c(Oc2ccc3ncn([C@H]4COC5(CCC(N6CC7(CN(c8ccc(NC9CCC(=O)NC9=O)cc8F)C7)C6)CC5)C4)c(=O)c3c2)c1C#N (stereo partly drawn) [Compound 30, 6-[2-cyano-3-[[ethyl(methyl)sulfamoyl]amino]-6-fluoro-phenoxy]-3-[(3R)-8-[6-[4-[(2,6-dioxo-3-piperidyl)amino]-2-fluoro-phenyl]-2,6-diazaspiro[3.3]heptan-2-yl]-1-oxaspiro[4.5]decan-3-yl]-4-oxo-quinazoline]
< 1000 nM	< 1000 nM	< 50%	< 1000 nM	< 1000 nM	< 50%	< 1000 nM	< 50%	< 1000 nM								CCN(C)S(=O)(=O)Nc1ccc(F)c(Oc2ccc3ncn([C@H]4COC5(CCN(C6CC7(C6)CN(c6ccc(NC8CCC(=O)NC8=O)cc6F)C7)CC5)C4)c(=O)c3c2)c1C#N (stereo partly drawn) [Compound 35, (3R)-3-[6-[2-cyano-3-[[ethyl(methyl)sulfamoyl]amino]-6-fluoro-phenoxy]-4-oxo-quinazolin-3-yl]-8-[2-[4-[(2,6-dioxo-3-piperidyl)amino]-2-fluoro-phenyl]-2-azaspiro[3.3]heptan-6-yl]-1-oxa-8-azaspiro[4.5]decane]
		50 to 90%			< 50%		< 50%			1000 to 10000 nM	< 1000 nM	< 1000 nM	< 1000 nM	< 1000 nM	< 1000 nM	CCN(C)S(=O)(=O)Nc1ccc(F)c(Oc2ccc3ncn([C@H]4COC5(CCC(N6CCN(c7ccc(NC8CCC(=O)NC8=O)cc7F)CC6)CC5)C4)c(=O)c3c2)c1C#N (stereo partly drawn) [Compound 40, 6-[2-cyano-3-[[ethyl(methyl)sulfamoyl]amino]-6-fluoro-phenoxy]-3-[(3R)-8-[4-[4-[(2,6-dioxo-3-piperidyl)amino]-2-fluoro-phenyl]piperazin-1-yl]-1-oxaspiro[4.5]decan-3-yl]-4-oxo-quinazoline]
< 1000 nM	> 10000 nM		< 1000 nM	< 1000 nM	< 50%	< 1000 nM	< 50%	< 1000 nM	50 to 90%							Cn1nc(N2CCC(=O)NC2=O)c2cc(F)c(N3CC4(CC(N5CCC6(CC5)C[C@@H](n5cnc7ccc(Oc8c(F)ccc(NS(=O)(=O)N9CC[C@@H](F)C9)c8C#N)cc7c5=O)CO6)C4)C3)cc21 [Compound 133, (3R)-N-[2-cyano-3-[3-[(3R)-8-[2-[3-(2,4-dioxohexahydropyrimidin-1-yl)-5-fluoro-1-methyl-indazol-6-yl]-2-azaspiro[3.3]heptan-6-yl]-1-oxa-8-azaspiro[4.5]decan-3-yl]-4-oxo-quinazolin-6-yl]oxy-4-fluoro-phenyl]-3-fluoro-pyrrolidine-1-sulfonamide]
< 1000 nM	< 1000 nM	50 to 90%	< 1000 nM	< 1000 nM	< 50%	< 1000 nM	< 50%	< 1000 nM								CC(C)S(=O)(=O)Nc1ccc(F)c(Oc2ccc3ncn([C@H]4COC5(CCN(C6CC7(C6)CN(c6cc8c(cc6F)c(N6CCC(=O)NC6=O)nn8C)C7)CC5)C4)c(=O)c3c2)c1C#N [Compound 134, N-[2-cyano-3-[3-[(3R)-8-[2-[3-(2,4-dioxohexahydropyrimidin-1-yl)-5-fluoro-1-methyl-indazol-6-yl]-2-azaspiro[3.3]heptan-6-yl]-1-oxa-8-azaspiro[4.5]decan-3-yl]-4-oxo-quinazolin-6-yl]oxy-4-fluoro-phenyl]propane-2-sulfonamide]
					< 50%		< 50%		50 to 90%	1000 to 10000 nM	< 1000 nM	< 1000 nM	< 1000 nM	< 1000 nM	< 1000 nM	CO[C@@H]1CCN(S(=O)(=O)Nc2ccc(F)c(Oc3ccc4ncn([C@H]5COC6(CCN(C7CC8(C7)CN(c7cc9c(cc7F)c(N7CCC(=O)NC7=O)nn9C)C8)CC6)C5)c(=O)c4c3)c2C#N)C1 [Compound 144, (3R)-N-[2-cyano-3-[3-[(3R)-8-[2-[3-(2,4-dioxohexahydropyrimidin-1-yl)-5-fluoro-1-methyl-indazol-6-yl]-2-azaspiro[3.3]heptan-6-yl]-1-oxa-8-azaspiro[4.5]decan-3-yl]-4-oxo-quinazolin-6-yl]oxy-4-fluoro-phenyl]-3-methoxy-pyrrolidine-1-sulfonamide]
		50 to 90%			< 50%		< 50%			1000 to 10000 nM	< 1000 nM	< 1000 nM	< 1000 nM	< 1000 nM	< 1000 nM	CN(CCO)S(=O)(=O)Nc1ccc(F)c(Oc2ccc3ncn(C4CC5(CCN(C6CC7(C6)CN(c6cc8c(cc6F)c(N6CCC(=O)NC6=O)nn8C)C7)CC5)C4)c(=O)c3c2)c1C#N (stereo not drawn) [Compound 151, 6-[2-cyano-6-fluoro-3-[[2-hydroxyethyl(methyl)sulfamoyl]amino]phenoxy]-3-[7-[2-[3-(2,4-dioxohexahydropyrimidin-1-yl)-5-fluoro-1-methyl-indazol-6-yl]-2-azaspiro[3.3]heptan-6-yl]-7-azaspiro[3.5]nonan-2-yl]-4-oxo-quinazoline]
< 1000 nM	< 1000 nM		< 1000 nM	< 1000 nM	< 50%	< 1000 nM	< 50%	< 1000 nM	< 50%							CCN(C)S(=O)(=O)Nc1ccc(F)c(Oc2ccc3ncn(C4CC5(CCN(C6CCN(c7cc8c(cc7F)c(N7CCC(=O)NC7=O)nn8C)CC6)CC5)C4)c(=O)c3c2)c1C#N [Compound 156, 6-[2-cyano-3-[[ethyl(methyl)sulfamoyl]amino]-6-fluoro-phenoxy]-3-[7-[1-[3-(2,4-dioxohexahydropyrimidin-1-yl)-5-fluoro-1-methyl-indazol-6-yl]-4-piperidyl]-7-azaspiro[3.5]nonan-2-yl]-4-oxo-quinazoline]

Compound	DC50 [1]	DC50 [2]	Emax [3]	DC50 [4]	DC50 [5]	Emax [6]	DC50 [7]	Emax [8]	DC50 [9]	Emax [10]	DC50 [11]	DC50 [12]	DC50 [13]	DC50 [14]	DC50 [15]	DC50 [16]
CCN(C)S(=O)(=O)Nc1ccc(F)c(Oc2ccc3ncn(C4CC5(CCN(C6CC7(C6)CN(c6cc8c(cc6F)c(N6CCC(=O)NC6=O)nn8C)C7)CC5)C4)c(=O)c3c2)c1C#N (stereo not drawn) [Compound 141, 6-[2-cyano-3-[[ethyl(methyl)sulfamoyl]amino]-6-fluoro-phenoxy]-3-[7-[2-[3-(2,4-dioxohexahydropyrimidin-1-yl)-5-fluoro-1-methyl-indazol-6-yl]-2-azaspiro[3.3]heptan-6-yl]-7-azaspiro[3.5]nonan-2-yl]-4-oxo-quinazoline]	< 1000 nM	< 1000 nM		< 1000 nM	< 1000 nM	< 50%	< 1000 nM	< 50%	< 1000 nM	< 50%						
